The target in assay [1] is Serine/threonine-protein kinase pim-1 (Homo sapiens, UniProt P11309). Nature of the assay: Inhibition of Pim1.
Assay [2] addresses Serine/threonine-protein kinase pim-2 (Homo sapiens, UniProt Q9P1W9). Nature of the assay: Inhibition of Pim2.
Assay [3] in a line: Inhibition of Aurora1.
A short description of assay [4]: Inhibition of Aurora2.
The target in assay [5] is Serine/threonine-protein kinase MARK1 (Homo sapiens, UniProt Q9P0L2). Nature of the assay: Inhibition of MARK.
Assay [6] concerns the target T1, 5'-AMP-activated protein kinase subunit beta-1 (Homo sapiens, UniProt Q9Y478).
T1 sequence (Q9Y478 whole entry): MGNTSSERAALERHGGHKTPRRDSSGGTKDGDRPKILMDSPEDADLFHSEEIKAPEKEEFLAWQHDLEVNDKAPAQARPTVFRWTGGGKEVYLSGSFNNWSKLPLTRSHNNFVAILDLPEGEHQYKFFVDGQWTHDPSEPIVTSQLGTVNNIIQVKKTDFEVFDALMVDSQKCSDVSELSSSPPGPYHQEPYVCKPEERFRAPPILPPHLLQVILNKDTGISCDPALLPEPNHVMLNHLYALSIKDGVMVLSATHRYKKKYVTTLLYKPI
Put plainly: Inhibition of AMPK.

Assay [7] in a line: Inhibition of PKA.
The target in assay [8] is T2, Protein kinase C iota type (Homo sapiens, UniProt P41743).
T2 sequence (P41743 whole entry): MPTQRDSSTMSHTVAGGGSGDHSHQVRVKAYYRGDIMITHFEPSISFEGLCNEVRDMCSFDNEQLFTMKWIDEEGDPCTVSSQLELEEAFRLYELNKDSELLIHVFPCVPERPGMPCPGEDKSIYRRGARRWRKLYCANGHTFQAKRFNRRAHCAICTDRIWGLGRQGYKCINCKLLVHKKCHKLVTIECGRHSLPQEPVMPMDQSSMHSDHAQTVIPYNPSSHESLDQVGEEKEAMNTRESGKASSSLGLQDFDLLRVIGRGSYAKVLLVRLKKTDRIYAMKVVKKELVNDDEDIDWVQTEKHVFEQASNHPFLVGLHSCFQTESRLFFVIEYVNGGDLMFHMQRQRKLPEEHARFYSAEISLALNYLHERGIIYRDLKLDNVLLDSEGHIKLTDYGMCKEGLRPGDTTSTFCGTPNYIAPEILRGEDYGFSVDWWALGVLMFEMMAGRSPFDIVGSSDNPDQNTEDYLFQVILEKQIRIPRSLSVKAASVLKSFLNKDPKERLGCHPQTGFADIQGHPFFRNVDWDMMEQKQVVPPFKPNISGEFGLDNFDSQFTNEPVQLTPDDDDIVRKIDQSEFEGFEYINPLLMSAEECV
Put plainly: Inhibition of PKCiota.

A short description of assay [9]: Inhibition of Casein kinase 2.

Sequence of Serine/threonine-protein kinase pim-2 (Q9P1W9 whole entry): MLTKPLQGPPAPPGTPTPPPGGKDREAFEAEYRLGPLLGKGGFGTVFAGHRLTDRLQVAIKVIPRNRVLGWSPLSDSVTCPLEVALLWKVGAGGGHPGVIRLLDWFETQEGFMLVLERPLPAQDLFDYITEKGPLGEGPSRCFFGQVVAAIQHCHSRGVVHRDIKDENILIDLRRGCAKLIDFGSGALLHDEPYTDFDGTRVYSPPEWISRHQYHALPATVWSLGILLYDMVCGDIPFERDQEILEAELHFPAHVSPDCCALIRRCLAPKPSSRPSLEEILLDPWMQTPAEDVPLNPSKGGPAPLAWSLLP
Sequence of Serine/threonine-protein kinase pim-1 (P11309 whole entry): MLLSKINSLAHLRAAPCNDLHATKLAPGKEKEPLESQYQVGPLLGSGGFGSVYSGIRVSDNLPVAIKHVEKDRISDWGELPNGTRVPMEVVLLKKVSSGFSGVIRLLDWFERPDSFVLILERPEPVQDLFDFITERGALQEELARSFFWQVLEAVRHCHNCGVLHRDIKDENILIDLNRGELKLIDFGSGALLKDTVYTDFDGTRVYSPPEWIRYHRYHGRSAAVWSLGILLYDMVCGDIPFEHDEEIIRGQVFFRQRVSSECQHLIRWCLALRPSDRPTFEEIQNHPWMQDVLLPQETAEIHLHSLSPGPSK
Sequence of Serine/threonine-protein kinase MARK1 (Q9P0L2 whole entry): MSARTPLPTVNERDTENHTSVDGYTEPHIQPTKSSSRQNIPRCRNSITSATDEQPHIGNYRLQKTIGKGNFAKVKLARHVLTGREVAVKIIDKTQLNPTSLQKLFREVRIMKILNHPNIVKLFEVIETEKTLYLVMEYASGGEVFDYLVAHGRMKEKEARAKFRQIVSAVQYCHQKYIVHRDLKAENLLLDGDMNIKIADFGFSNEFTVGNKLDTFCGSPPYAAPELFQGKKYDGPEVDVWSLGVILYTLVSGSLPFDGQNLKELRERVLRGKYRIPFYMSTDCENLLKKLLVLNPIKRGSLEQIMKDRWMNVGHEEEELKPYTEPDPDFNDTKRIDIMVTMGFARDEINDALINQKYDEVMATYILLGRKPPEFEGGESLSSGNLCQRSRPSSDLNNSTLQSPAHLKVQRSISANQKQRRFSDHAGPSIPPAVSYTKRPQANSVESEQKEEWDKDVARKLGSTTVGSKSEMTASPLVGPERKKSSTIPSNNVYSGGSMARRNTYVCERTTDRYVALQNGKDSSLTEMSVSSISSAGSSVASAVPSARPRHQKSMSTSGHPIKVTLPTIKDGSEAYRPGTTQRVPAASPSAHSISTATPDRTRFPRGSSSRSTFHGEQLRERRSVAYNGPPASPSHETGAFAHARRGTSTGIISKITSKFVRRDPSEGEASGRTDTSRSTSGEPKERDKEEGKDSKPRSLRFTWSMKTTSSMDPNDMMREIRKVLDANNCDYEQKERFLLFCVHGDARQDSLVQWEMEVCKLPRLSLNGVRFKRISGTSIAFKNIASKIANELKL

As a reminder, the Ki is a dissociation constant, usually derived from enzyme kinetics or from competition with a known ligand. Read a high Ki as lower affinity. For the molecule `CC(C)n1c2cc(Cl)c(F)cc2c(=O)c2c(=O)o[nH]c21`, the Ki in assay [1] is 12.3 nM; in [2], 62.8 nM.

As for `CCn1c2cc(Cl)c(F)cc2c(=O)c2c(=O)on(Cc3ccccc3)c21`, the Ki in assay [1] is 1270 nM; in [2], > 1420 nM.

On to `CCn1c2cc(Cl)c(O)cc2c(=O)c2c(=O)o[nH]c21`, for which the Ki in assay [3] is > 6880 nM; in assay [4], > 6670 nM; in assay [5] it was > 8440 nM; in assay [6], 1730 nM; in [2], 43.5 nM; in assay [7], > 7500 nM. The Ki was > 8330 nM in assay [8] and 1070 nM in [9].

With `CCn1c2cc(Cl)c(F)cc2c(=O)c2c(=O)on(CCOCc3ccccc3)c21`, the figures for the Ki in assay [1] and in [2] were 4890 nM and > 1420 nM, respectively.

With `CCn1c2cc(Cl)c(OC)cc2c(=O)c2c(=O)o[nH]c21`, the results for the Ki in assay [1] and in [2] were 2700 nM and > 1420 nM, respectively.

As to `CCCCn1c2cc(Cl)c(F)cc2c(=O)c2c(=O)o[nH]c21`, the figures for the Ki in [1] and in assay [2] were 15 nM and 165 nM, respectively.

As to `O=c1o[nH]c2c1c(=O)c1cc(F)c(Cl)cc1n2Cc1ccccc1`, the Ki in assay [1] stood at 36.5 nM; in assay [2], 558 nM.

For `CCn1c2cc(Cl)c(F)cc2c(=O)c2c(=O)on(Cc3cccc(O)c3)c21`, the Ki in [1] was 271 nM; in assay [2], > 1420 nM.

`CCn1c2cc(Cl)c(F)cc2c(=O)c2c(=O)on(CCO)c21`: the Ki is 1160 nM in [1] and > 1420 nM in [2].
